Assay results: patent publication US10010539B2, “Pyrazole, triazole and tetrazole orexin receptor antagonists” (MERCK SHARP & DOHME CORP., priority 2014, dated 2018)

Columns and labels:
human orexin-2 receptor = human orexin-2 receptor (Homo sapiens (Human), UniProt O43614); assay: FLIPR Ca2+ Flux Assay, orexin-2 receptor (hOX2R FLIPR); format: cell-based; details: CHO cells expressing the human orexin-2 receptor; agonist 70 pM Ala-6,12 human orexin-A
Outline: (§1)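 Steps: Fluo-4AM loading of CHO cells (rat OX1R or human OX2R) for 60 min at 37 °C; 5 min compound preincubation; addition of Ala-6,12 orexin-A at 70 pM final; 5 min fluorescence recording. Antagonist IC50 is derived from peak heights against the uninhibited agonist response.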

[1] = target: hOXIR (orexin-1 receptor) (Homo sapiens, UniProt O43613); assay: FLIPR Ca2+ Flux Assay, orexin-1 receptor (hOXIR FLIPR); format: cell-based; details: CHO cells expressing the orexin-1 receptor (method text: rat; table head: hOXIR); agonist 70 pM Ala-6,12 human orexin-A
Outline: as §1

Chain of human orexin-2 receptor (O43614 whole entry): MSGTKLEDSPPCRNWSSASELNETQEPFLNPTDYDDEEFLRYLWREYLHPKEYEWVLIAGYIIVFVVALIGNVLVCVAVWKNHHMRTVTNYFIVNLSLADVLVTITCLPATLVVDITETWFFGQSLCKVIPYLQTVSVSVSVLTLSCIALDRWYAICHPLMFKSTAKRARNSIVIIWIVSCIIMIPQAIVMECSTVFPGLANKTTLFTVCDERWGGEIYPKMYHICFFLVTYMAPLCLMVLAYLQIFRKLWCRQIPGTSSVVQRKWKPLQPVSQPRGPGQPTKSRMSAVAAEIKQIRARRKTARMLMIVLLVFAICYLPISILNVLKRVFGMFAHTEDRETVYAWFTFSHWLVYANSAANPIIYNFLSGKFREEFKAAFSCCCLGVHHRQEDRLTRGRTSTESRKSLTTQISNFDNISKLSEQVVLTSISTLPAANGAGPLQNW

SMILES | IC50 (human orexin-2 receptor) | IC50 [1]
CCOc1ccccc1C(=O)N1C[C@H](n2cc(C(C)(C)O)cn2)CC[C@H]1C [Example 77, 2-(1-{(3R,6R)-1-[(2-Ethoxyphenyl)carbonyl]-6-methylpiperidin-3-yl}-1H-pyrazol-4-yl)propan-2-ol] | 0.121 µM | > 10 µM
C[C@@H]1CC[C@@H](n2ncc(C(C)(C)O)n2)CN1C(=O)c1sccc1-n1nccn1 [Example 32, 2-{2-[(3R,6R)-6-methyl-1-{[3-(2H-1,2,3-triazol-2-yl)thiophen-2-yl]carbonyl}piperidin-3-yl]-2H-1,2,3-triazol-4-yl}propan-2-ol] | 0.0896 µM | > 10 µM
Cc1noc(-c2c(F)cccc2C(=O)N2C[C@H](n3ncc(C(C)(C)O)n3)CC[C@H]2C)n1 [Example 48, 2-{2-[(3R,6R)-1-{[3-fluoro-2-(3-methyl-1,2,4-oxadiazol-5-yl)phenyl]carbonyl}-6-methylpiperidin-3-yl]-2H-1,2,3-triazol-4-yl}propan-2-ol] | 0.137 µM | > 10 µM
COc1ccc(C(=O)N2C[C@H](n3ncc(C(C)(C)O)n3)CC[C@H]2C)c(-n2nccn2)c1 [Example 54, 2-{2-[(3R,6R)-1-{[4-methoxy-2-(2H-1,2,3-triazol-2-yl)phenyl]carbonyl}-6-methylpiperidin-3-yl]-2H-1,2,3-triazol-4-yl}propan-2-ol] | 0.0533 µM | > 10 µM
C[C@@H]1CC[C@@H](n2cc(C(C)(C)O)cn2)CN1C(=O)c1ccccc1-n1cccn1 [Example 93, 2-{1-[(3R,6R)-6-Methyl-1-{[2-(1H-pyrazol-1-yl)phenyl]carbonyl}piperidin-3-yl]-1H-pyrazol-4-yl}propan-2-ol] | 0.0927 µM | > 10 µM
CCCc1ccccc1C(=O)N1C[C@H](n2ncc(C(C)(C)O)n2)CC[C@H]1C [Example 4, ((2R,5R)-5-(4-(2-Hydroxypropan-2-yl)-2H-1,2,3-triazol-2-yl)-2-methylpiperidin-1-yl)(2-propylphenyl)methanone] | 0.0159 µM | 8.11 µM
C[C@@H]1CC[C@@H](n2ncc(C(C)(C)O)n2)CN1C(=O)c1ccccc1[C@@H]1CC1(F)F [Example 22, 2-{2-[(3R,6R)-1-({2-[(1S)-2,2-difluorocyclopropyl]phenyl}carbonyl)-6-methylpiperidin-3-yl]-2H-1,2,3-triazol-4-yl}propan-2-ol] | 0.0085 µM | 0.733 µM
C[C@@H]1CC[C@@H](n2cc(C(C)(C)O)cn2)CN1C(=O)c1ccccc1OC(F)(F)F [Example 83, 2-{1-[(3R,6R)-6-Methyl-1-{[2-(trifluoromethoxy)phenyl]carbonyl}piperidin-3-yl]-1H-pyrazol-4-yl}propan-2-ol] | 0.0314 µM | > 10 µM
Cc1nn([C@@H]2CC[C@@H](C)N(C(=O)c3ccccc3OC(F)F)C2)nc1C(C)(C)O [Example 66, 2-{2-[(3R,6R)-1-{[2-(Difluoromethoxy)phenyl]carbonyl}-6-methylpiperidin-3-yl]-5-methyl-2H-1,2,3-triazol-4-yl}propan-2-ol] | 0.0096 µM | 3.06 µM
COc1ccc(C(=O)N2C[C@H](n3cc(C(C)(C)O)cn3)CC[C@H]2C)c(C2CC2)n1 [Example 96, 2-(1-{(3R,6R)-1-[(2-Cyclopropyl-6-methoxypyridin-3-yl)carbonyl]-6-methylpiperidin-3-yl}-1H-pyrazol-4-yl)propan-2-ol] | 1.6 µM | > 10 µM
C[C@@H]1CC[C@@H](n2cc(C(C)(O)C(F)(F)F)cn2)CN1C(=O)c1ccccc1-n1nccn1 (stereo partly drawn) [Example 104, 1,1,1-Trifluoro-2-{1-[(3R,6R)-6-methyl-1-{[2-(2H-1,2,3-triazol-2-yl)phenyl]carbonyl}piperidin-3-yl]-1H-pyrazol-4-yl}propan-2-ol] | 0.0134 µM | 2.01 µM
C[C@@H]1CC[C@@H](n2ncc([C@@H](O)C(F)(F)F)n2)CN1C(=O)c1ccccc1-n1nccn1 [Example 27, (2-(2H-1,2,3-triazol-2-yl)phenyl)((2R,5R)-2-methyl-5-(4-((R)-2,2,2-trifluoro-1-hydroxyethyl)-2H-1,2,3-triazol-2-yl)piperidin-1-yl)methanone] | 0.0179 µM | 0.505 µM
C[C@@H]1CC[C@@H](n2ncc(C(C)(C)O)n2)CN1C(=O)c1ccccc1N1CCCC1 [Example 49, 2-(2-{(3R,6R)-6-methyl-1-[(2-pyrrolidin-1-ylphenyl)carbonyl]piperidin-3-yl}-2H-1,2,3-triazol-4-yl)propan-2-ol] | 0.0291 µM | 2.83 µM
Cc1nn([C@@H]2CC[C@@H](C)N(C(=O)c3cccnc3-c3ccccc3)C2)nc1C(C)(C)O [Example 73, 2-(5-Methyl-2-{(3R,6R)-6-methyl-1-[(2-phenylpyridin-3-yl)carbonyl]piperidin-3-yl}-2H-1,2,3-triazol-4-yl)propan-2-ol] | 0.0174 µM | 2.46 µM
Cc1nc(-c2ccc(F)cc2C(=O)N2C[C@H](n3ncc(C(C)(C)O)n3)CC[C@H]2C)no1 [Example 30, (5-Fluoro-2-(5-methyl-1,2,4-oxadiazol-3-yl)phenyl)((2R,5R)-5-(4-(2-hydroxypropan-2-yl)-2H-1,2,3-triazol-2-yl)-2-methylpiperidin-1-yl)methanone] | 0.139 µM | > 10 µM
C[C@@H]1CC[C@@H](n2ncc([C@H](O)C(F)(F)F)n2)CN1C(=O)c1ccccc1-n1nccn1 [Example 26, (2-(2H-1,2,3-triazol-2-yl)phenyl) ((2R,5R)-2-methyl-5-(4-((S)-2,2,2-trifluoro-1-hydroxyethyl)-2H-1,2,3-triazol-2-yl)piperidin-1-yl)methanone] | 0.0867 µM | > 10 µM
C[C@@H]1CC[C@@H](n2ncc(C(C)(C)O)n2)CN1C(=O)c1nccnc1-n1cccn1 [Example 43, 2-{2-[(3R,6R)-6-methyl-1-{[3-(1H-pyrazol-1-yl)pyrazin-2-yl]carbonyl}piperidin-3-yl]-2H-1,2,3-triazol-4-yl}propan-2-ol] | 0.109 µM | > 10 µM
CC(C)c1ccccc1C(=O)N1C[C@H](n2cc(C(C)(C)O)cn2)CC[C@H]1C [Example 82, 2-{1-[(3R,6R)-6-Methyl-1-{[2-(1-methylethyl)phenyl]carbonyl}piperidin-3-yl]-1H-pyrazol-4-yl}propan-2-ol] | 0.347 µM | > 10 µM
Cc1nn([C@@H]2CC[C@@H](C)N(C(=O)c3cccnc3OCC(F)(F)F)C2)nc1C(C)(C)O [Example 68, 2-{5-mMethyl-2-[(3R,6R)-6-methyl-1-{[2-(2,2,2-trifluoroethoxy)pyridin-3-yl]carbonyl}piperidin-3-yl]-2H-1,2,3-triazol-4-yl}propan-2-ol] | 0.0069 µM | 1.52 µM
C[C@@H]1CC[C@@H](n2cc(C(C)(C)O)cn2)CN1C(=O)c1ccccc1CC(F)F [Example 99, 2-{1-[(3R,6R)-1-{[2-(2,2-Difluoroethyl)phenyl]carbonyl}-6-methylpiperidin-3-yl]-1H-pyrazol-4-yl}propan-2-ol] | 0.0384 µM | > 10 µM
CCOc1ncccc1C(=O)N1C[C@H](n2nc(C)c(C(C)(C)O)n2)CC[C@H]1C [Example 65, 2-(2-{(3R,6R)-1-[(2-Ethoxypyridin-3-yl)carbonyl]-6-methylpiperidin-3-yl}-5-methyl-2H-1,2,3-triazol-4-yl)propan-2-ol] | 0.0151 µM | 2.93 µM
C[C@@H]1CC[C@@H](n2ncc(-c3ccccc3)n2)CN1C(=O)c1ccccc1-n1nccn1 [Example 28, (2-(2H-1,2,3-triazol-2-yl)phenyl)((2R,5R)-2-methyl-5-(4-phenyl-2H-1,2,3-triazol-2-yl)piperidin-1-yl)methanone] | 0.0697 µM | 0.054 µM
Cc1nc(-c2c(F)cccc2C(=O)N2C[C@H](n3ncc(C(C)(C)O)n3)CC[C@H]2C)no1 [Example 37, 2-{2-[(3R,6R)-1-{[3-fluoro-2-(5-methyl-1,2,4-oxadiazol-3-yl)phenyl]carbonyl}-6-methylpiperidin-3-yl]-2H-1,2,3-triazol-4-yl}propan-2-ol] | 0.0752 µM | > 10 µM
C[C@@H]1CC[C@@H](n2ncc(C(C)(C)O)n2)CN1C(=O)c1ccccc1CC(F)(F)F [Example 9, ((2R,5R)-5-(4-(2-Hydroxypropan-2-yl)-2H-1,2,3-triazol-2-yl)-2-methylpiperidin-1-yl)(2-(2,2,2-trifluoroethyl)phenyl)methanone] | 0.03 µM | > 10 µM
C[C@@H]1CC[C@@H](n2cc(C(C)(C)O)cn2)CN1C(=O)c1cccnc1-c1ccccc1 [Example 92, 2-(1-{(3R,6R)-6-Methyl-1-[(2-phenylpyridin-3-yl)carbonyl]piperidin-3-yl}-1H-pyrazol-4-yl)propan-2-ol] | 0.195 µM | > 10 µM
C[C@@H]1CC[C@@H](n2ncc(C(C)(C)O)n2)CN1C(=O)c1cccnc1OCC(F)(F)F [Example 14, ((2R,5R)-5-(4-(2-Hydroxypropan-2-yl)-2H-1,2,3-triazol-2-yl)-2-methylpiperidin-1-yl)(2-(2,2,2-trifluoroethoxy)pyridin-3-yl)methanone] | 0.0159 µM | 8.79 µM
C[C@@H]1CC[C@@H](n2nnc(C(C)(C)O)n2)CN1C(=O)c1ccccc1-n1nccn1 [Example 74, 2-{2-[(3R,6R)-6-Methyl-1-{[2-(2H-1,2,3-triazol-2-yl)phenyl]carbonyl}piperidin-3-yl]-2H-tetrazol-5-yl}propan-2-ol] | 0.0449 µM | > 10 µM
C[C@@H]1CC[C@@H](n2ncc(C(C)(C)O)n2)CN1C(=O)c1ccccc1-c1ccccc1 [Example 2, [1,1′-Biphenyl]-2-yl((2R,5R)-5-(4-(2-hydroxypropan-2-yl)-2H-1,2,3-triazol-2-yl)-2-methylpiperidin-1-yl)methanone] | 0.0162 µM | 0.483 µM
